Measurements: patent US8933029B2, “Antimicrobial and anti-inflammatory peptides” (Carrus Capital Corporation, priority 2001, dated 2015)
Marks after values point to notes of the source that are not given here. Ends that are not written are not given here.

Columns and labels:
TPA-induced ear edema = test: TPA ear edema model; settings: for Topical Dose (% change vs. vehicle) 0.1%: topical 0.1%; for Topical Dose (% change vs. vehicle) 0.1% / Topical Dose (% change vs. vehicle) 1.0% / Topical Dose (% change vs. vehicle) 5 0%: ear biopsy weight six hours after TPA; for Topical Dose (% change vs. vehicle) 1.0%: topical 1.0%
[1] = system: oxazolone contact hypersensitivity (ear inflammation); test: Oxazolone contact hypersensitivity model; format: in vivo, CD-1 mice; settings: Dosage of 0.1%, applied to ear one hour after oxazolone challenge, ear punch weight after 24 h, 70% EtOH/30% propylene glycol vehicle
Experimental: Briefly, a 3.0% (w/v) solution of oxazolone in acetone/corn oil (5:1) is applied topically to the skin on the shaved abdomens of mice of approximately the same weight and approximately the same age on day 0. […] Twenty-four hours later a dermal biopsy punch of the treated ear is taken and weighed.
CD-1 mice are treated with 3% oxazolone (Sigma) (30 mg/ml) in corn oil:acetone on a shaved abdomen. All solutions are sonicated for 7 minutes. Five days later, the mice are challenged with a 2% oxazolone (20 mg/ml) in acetone on the left ear, with the right ear being left untreated (control). One hour after challenge, the candidate peptide in a 70% EtOH/30% propylene glycol formulation (vehicle) was applied to the left ear, with the right ear being left untreated. After 24 h, 7 mm ear punches are taken from each ear of the mice. The ear punches are placed on a scale and the difference between the treated and untreated ears were compared. The percent inhibition of inflammation was calculated by comparing the mean of each treated group to the control group. The positive control is hydrocortisone (a known anti-inflammatory agent). Most of the indolicidin peptides inhibited inflammation as well as hydrocortisone.

[2] = formulated in 50% ethanol/5 mM lactate buffer (*)
[3] = topical 5 0%, formulated in 50% ethanol/5 mM lactate buffer (*)
[4] = topical 5.0%, formulated in 95% ethanol

| Compound | Topical Dose (% change vs. vehicle) 0.1% (TPA-induced ear edema; formulated in 95% ethanol) | Topical Dose (% change vs. vehicle) 1.0% (TPA-induced ear edema; formulated in 95% ethanol) [%] | other results |
| --- | --- | --- | --- |
| C[C@@H]1C[C@H]2[C@@H]3CCC4=CC(=O)C=C[C@]4(C)[C@@]3(F)[C@@H](O)C[C@]2(C)[C@@]1(O)C(=O)CO [Dexamethasone, dexamethasone, reference compound] | −92% |  | Systemic Dose (% change vs. vehicle) 5 mg/kg (TPA-induced ear edema; systemic 5 mg/kg): >−80%; Topical Dose (% change vs. vehicle) 0.1% (TPA-induced ear edema; [2]): >−90* % |
| CC[C@H]1OC(=O)[C@H](C)[C@@H](O[C@H]2C[C@@](C)(OC)[C@@H](O)[C@H](C)O2)[C@H](C)[C@@H](O[C@@H]2O[C@H](C)C[C@H](N(C)C)[C@H]2O)[C@](C)(O)C[C@@H](C)C(=O)[C@H](C)[C@@H](O)[C@]1(C)O [Erythromycin, erythromycin, reference compound] |  |  | Topical Dose (% change vs. vehicle) 0.1% (TPA-induced ear edema; [2]): −20* %; Topical Dose (% change vs. vehicle) 1.0% (TPA-induced ear edema; [2]): −67* %; Topical Dose (% change vs. vehicle) 5 0% (TPA-induced ear edema; [3]): −87* % |
| C[C@]12CCC(=O)C=C1CC[C@@H]1[C@@H]2[C@@H](O)C[C@@]2(C)[C@H]1CC[C@]2(O)C(=O)CO [Hydrocortisone, hydrocortisone, reference compound] |  |  | % Inhibition of Inflammation [1]: 84.92% |
| A-ILTWPWWPWTTT-CN (not fully specified; N-terminal A, C-terminal nitrile/amide) [Peptide 11B24ACN] |  |  | Topical Dose (% change vs. vehicle) 5 0% (TPA-induced ear edema; [4]): −75% |
| F R F F K P K F R F P K F (FRFFKPKFRFPKF-{CN}) [Peptide 11J33CN] |  | −52 |  |
| H-GWRFLKLAWRFLKL-OH [Peptide 11J97] | +33% | −29 | Topical Dose (% change vs. vehicle) 5 0% (TPA-induced ear edema; [4]): −49% |
| H-GWRFLKLAWRFLKLRR-OH [Peptide 11J136] | −12% | −54 |  |
| H-ILRWVWRIL-CN (H-ILRWVWRIL-{CN}) [Peptide 11J148CN] | −33% | −74 |  |
| H-ILRWVWRILR-CN (H-ILRWVWRILR-{CN}; not fully specified) [Peptide 11J131CN] | −20% | −43 |  |
| H-L(Orn)FL(Orn)W AF(Orn)L W(Orn)L-CN [Peptide 11J84CN] | −14% | −35 |  |
| H-LRFLKW(Aib)WRFLKL-CN [Peptide 11J105CN] | −4% | −51 |  |
| H-RILRW(Aib)WRILR-CN [Peptide 11J157CN] | +5% | −55 |  |
| H-RILRWVWRILR-CN (H-RILRWVWRILR-{CN}) [Peptide 11J115CN] | −1% | −57 |  |
| I L E E W P W W P W E E E (ILEEWPWWPWEEE-{CN}) [Peptide 11B11CN] |  |  | Topical Dose (% change vs. vehicle) 5 0% (TPA-induced ear edema; [3]): −64* % |
| I L Q W P W W P W Q Q Q (ILQWPWWPWQQQ-{CN}) [Peptide 11B38CN] |  | −8 | Topical Dose (% change vs. vehicle) 5 0% (TPA-induced ear edema; [4]): −51% |
| I L T W P W W P W T T T (ILTWPWWPWTTT-{CN}) [Peptide 11B24CN] |  | −32 | Topical Dose (% change vs. vehicle) 5 0% (TPA-induced ear edema; [4]): −64% |
